Values after ≈ are worked out from the molar mass of the structure shown. Like-named read-outs stand apart in the source and are kept apart here.
Columns and labels:
[1] = Kinetic aqueous solubility (KSOL) in PBS, pH 7.4; type: physicochemical; conditions: aqueous buffer, kinetic from dmso stock
Description: (§1) ADME studies: Compound A and the compounds of the disclosure were tested for aqueous solubility (KSOL), metabolic stability (human and mouse […]) and permeability (Caco-2 and/or MDR1-MDCK cells) to provide an initial indication of oral bioavailability.
(§2) The favorable physicochemical properties are reflected in promising results in in vitro ADME tests. […] Metabolic stability, which was routinely measured with mouse and human hepatocytes, is outstanding, with t, greater than 2 hours for all of the compounds of the disclosure in which it has been measured. Cell permeability was measured using MDCK cells expressing human MDR1 (P-glycoprotein) to assess passive permeability as well as active transport out of the cell. […] Numerous compounds in Table 1 meet these permeability criteria, which is consistent with their design for TPSA <140 Å^2 and increased lipophilicity.

[2] = Metabolic stability in human hepatocytes; type: in vitro ADME; conditions: read-out: Human MS Stability t1/2
Description: as §1, §2
(§3) The MDCK-MDR1 permeability A ->B is shown in Table 2 below, where A represents 5-10 cm/s×10^−6; B represents 1-5 cm/s×10^−6; and C represents <1 cm/ss×10^−6. The metabolic stability half time, in both mouse and human hepatocytes, is also shown in Table 2 below, where A′ represents 100-200 minutes; B′ represents 200-300 minutes; and C′ represents >300 minutes.

[3] = test system: IFNβ production in THP-1 cells; test: IFNβ ELISA in THP-1 cells; type: cell-based, human; conditions: Homo sapiens; THP-1 cells
Outline: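 THP-1 cells stimulated with dsDNA or cGAMP (STING activation bypassing cGAS) in the presence of compound; IFNβ secreted into medium quantified by ELISA. IC50 values reported in potency bins.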

[4] = target: cGAS (Homo sapiens, UniProt Q8N884); test: Transcreener cGAS enzymatic assay (FP); type: biochemical
Chain of cGAS (Q8N884 whole entry): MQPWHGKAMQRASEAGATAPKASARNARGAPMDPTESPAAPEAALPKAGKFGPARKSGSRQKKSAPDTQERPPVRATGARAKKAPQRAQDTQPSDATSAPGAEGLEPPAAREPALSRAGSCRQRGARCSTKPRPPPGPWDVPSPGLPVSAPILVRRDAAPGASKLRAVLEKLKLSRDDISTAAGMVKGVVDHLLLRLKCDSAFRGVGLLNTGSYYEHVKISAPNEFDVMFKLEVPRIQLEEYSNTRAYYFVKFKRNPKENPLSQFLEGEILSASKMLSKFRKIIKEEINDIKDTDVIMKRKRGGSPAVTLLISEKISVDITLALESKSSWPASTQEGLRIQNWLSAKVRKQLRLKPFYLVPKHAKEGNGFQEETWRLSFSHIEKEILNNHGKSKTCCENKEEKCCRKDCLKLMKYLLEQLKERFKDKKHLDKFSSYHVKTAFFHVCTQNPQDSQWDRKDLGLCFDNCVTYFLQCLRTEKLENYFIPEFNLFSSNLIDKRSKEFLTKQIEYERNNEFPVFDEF
Outline: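 Human cGAS (30 nm) inhibition, 60 min reactions, FP read-out, standard conditions 100 μM ATP and GTP plus 62.5 nM bp ISD. Also run at 1 mM ATP and GTP (physiological), with 200 μM MnCl2, and with mouse cGAS under standard conditions; IC50 reported.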

[5] = test system: MDR1 (P-glycoprotein); test: MDCK-MDR1 permeability A→B; type: in vitro ADME, Canine; conditions: dog; MDCK cells expressing human MDR1, A→B; read-out: MDCK-MDR Permeability A→B
Outline: (§4)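 Permeability measured apical-to-basolateral in MDCK cells expressing human MDR1, reported as binned ranges in cm/s×10^−6. Metabolic stability determined as half-life in mouse and human hepatocytes, reported as binned ranges in minutes.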

[6] = Metabolic stability in mouse hepatocytes; type: in vitro ADME; conditions: read-out: Mouse MS Stability t1/2
Description: as §1, §2, §3

[7] = test system: MDCK cells expressing human MDR1 (P-glycoprotein); test: MDCK-MDR1 permeability A→B; type: in vitro ADME, Canine
Outline: as §4

[8] = test system: IFN-β production in PBMCs; test: IFNβ ELISA in human primary PBMCs; type: cell-based; conditions: PBMC
From the text: Cellular assays: The human monocyte cell line THP-1 and human primary PBMCs were used to evaluate the cellular activity of compounds with good biochemical potency. These cells produce a robust cGAS/STING-dependent type I IFN response when stimulated with dsDNA and other pathogen-associated molecular patterns, which was detected using a standard ELISA for IFNβ (R&D Systems). The TBK1 inhibitor, BX-795, which acts downstream of cGAS/STING, was used as a probe.
The ICso values for IFNB ELISA stimulated with THP-1, PBMC, DNA, and cGAMP were determined for several exemplary compounds of the invention, and are provided in Table 3 where A represents <1 μM; B represents 1-2.5 μM; C represents 2.5-10 μM; D represents 10-20 μM; and E represents >20 μM.
The reporter gene assays were used to assess off-target activity with IRF30Luc (RIG-1) or NFKB (TLR4); CellTiter Glo (ATP levels) and Presto Blue (reducing equivalents) were used to assess cytotoxicity; all assays were performed in dose response mode. […] The inventors recently began using human PBMCs to assess cellular potency in a more physiologically relevant context.

[9] = high ATP and GTP (1 mM) to mimic physiological conditions, read-out: IC50 FP Physiological
[10] = standard conditions: 100 μM ATP and GTP, 62.5 nM bp ISD, 60 minute reactions, read-out: IC50 FP Standard

Structure (SMILES) | solubility kinetic [1] [µM] | half-life [2] [h] | IC50 [3] [µM] | IC50 [4, 9] [µM] | IC50 [4, 10] [µM] | Papp A→B [5] [×10⁻⁶ cm/s] | half-life [6] [h] | MDCK-MDR Permeability A→B [7] | IC50 [8] [µM]
Cc1nc(N2C[C@@H](CC(=O)Nc3ccc4[nH]ccc4c3)C[C@H]2C(=O)O)c2oc3ccccc3c2n1 [Compound 1, (2S,4R)-4-(2-((1H-indol-5-yl)amino)-2-oxyethyl)-1-(2-methylbenzofuro[3,2-d]pyrimidin-4-yl)pyrrolidine-2-carboxylic acid] | 487 (≈ 229 µg/mL) | > 5 | 2.5 to 10 | 1 to 5 | 0.05 to 0.1 | 1 to 5 | 1.67 to 3.33 | – | –
Cc1nc(N2C[C@@H](CC(=O)N(C)C3CCCC3)C[C@H]2C(=O)O)c2oc3ccccc3c2n1 [Compound 2, (2S,4R)-4-(2-(cyclopentyl(methyl)amino)-2-oxoethyl)-1-(2-methylbenzofuro[3,2-d]pyrimidin-4-yl)pyrrolidine-2-carboxylic acid] | 506 (≈ 221 µg/mL) | > 5 | > 20 | 0.5 to 1 | 0.05 to 0.1 | – | > 5 | C (C represents <1 cm/ss×10^−6) | –
Cc1nc(N2C[C@@H](CC(=O)Nc3ccc4[nH]ncc4c3)C[C@H]2C(=O)O)c2oc3ccccc3c2n1 [Compound 3, (2S,4R)-4-(2-((1H-indazol-5-yl)amino)-2-oxyethyl)-1-(2-methylbenzofuro[3,2-d]pyrimidin-4-yl)pyrrolidine-2-carboxylic acid] | 496 (≈ 233 µg/mL) | – | 10 to 20 | > 5 | 1 to 10 | – | > 5 | C (C represents <1 cm/ss×10^−6) | –
COc1cc(NC(=O)C[C@H]2C[C@@H](C(=O)O)N(c3nc(C)nc4c3oc3ccccc34)C2)ccn1 [Compound 6, (2S,4R)-4-(2-((2-methoxypyridin-4-yl)amino)-2-oxoethyl)-1-(2-methylbenzofuro[3,2-d]pyrimidin-4-yl)pyrrolidine-2-carboxylic acid] | 496 (≈ 229 µg/mL) | > 5 | 2.5 to 10 | 1 to 5 | 0.05 to 0.1 | – | > 5 | C (C represents <1 cm/ss×10^−6) | –
C#Cc1ccc(NC(=O)C[C@H]2C[C@@H](C(=O)O)N(c3nc(C)nc4c3oc3ccccc34)C2)cc1 [Compound 27, (2S,4R)-4-(2-((4-ethynylphenyl)amino)-2-oxoethyl)-1-(2-methylbenzofuro[3,2-d]pyrimidin-4-yl)pyrrolidine-2-carboxylic acid] | 548 (≈ 249 µg/mL) | 1.67 to 3.33 | 2.5 to 10 | 1 to 5 | 0.1 to 0.2 | 1 to 5 | > 5 | – | 2.5 to 10
Cc1nc(N2C[C@@H](CC(=O)Nc3ccc4ncccc4c3)C[C@H]2C(=O)O)c2oc3ccccc3c2n1 [Compound 32, (2S,4R)-1-(2-methylbenzofuro[3,2-d]pyrimidin-4-yl)-4-(2-oxo-2-(quinolin-6-ylamino)ethyl)pyrrolidine-2-carboxylic acid] | 527 (≈ 254 µg/mL) | > 5 | 2.5 to 10 | 1 to 5 | 0.05 to 0.1 | – | 3.33 to 5 | C (C represents <1 cm/ss×10^−6) | 10 to 20
Cc1nc(N2C[C@@H](CC(=O)Nc3ccc(-c4ccc5[nH]ncc5c4)cc3)C[C@H]2C(=O)O)c2oc3ccccc3c2n1 [Compound 38, (2S,4R)-4-(2-((4-(1H-indazol-5-yl)phenyl)amino)-2-oxoethyl)-1-(2-methylbenzofuro[3,2-d]pyrimidin-4-yl)pyrrolidine-2-carboxylic acid] | 84 (≈ 45.9 µg/mL) | 1.67 to 3.33 | 1 to 2.5 | 0.2 to 0.5 | < 0.05 | – | > 5 | C (C represents <1 cm/ss×10^−6) | 2.5 to 10
Cc1nc(N2C[C@@H](CC(=O)Nc3ccc(Cc4ccccc4)cc3)C[C@H]2C(=O)O)c2oc3ccccc3c2n1 [Compound 54, (28.4R)-4-(2-((4-benzylphenyl)amino)-2-oxoethyl)-1-(2-methylbenzofuro[3,2-d]pyrimidin-4-yl)pyrrolidine-2-carboxylic acid] | 285 (≈ 148 µg/mL) | 1.67 to 3.33 | 1 to 2.5 | 0.5 to 1 | 0.05 to 0.1 | 1 to 5 | 1.67 to 3.33 | – | 2.5 to 10

More lines, main results first:

solubility kinetic [1] [µM] | half-life [2] [h] | IC50 [3] [µM] | IC50 [4, 9] [µM] | IC50 [4, 10] [µM] | Papp A→B [5] [×10⁻⁶ cm/s] | half-life [6] [h] | MDCK-MDR Permeability A→B [7] | Structure (SMILES) | IC50 [8] [µM]
80 (≈ 39.9 µg/mL) | > 5 | 2.5 to 10 | 1 to 5 | 0.2 to 1 | 5 to 10 | > 5 | – | Cc1nc(N2C[C@@H](CC(=O)Nc3ccc(Cl)c(Cl)c3)C[C@H]2C(=O)O)c2oc3ccccc3c2n1 [Compound 26, (2S,4R)-4-(2-((3,4-dichlorophenyl)amino)-2-oxoethyl)-1-(2-methylbenzofuro[3,2-d]pyrimidin-4-yl)pyrrolidine-2-carboxylic acid] | 2.5 to 10
313 (≈ 150 µg/mL) | 1.67 to 3.33 | 1 to 2.5 | 0.2 to 0.5 | 0.05 to 0.1 | 5 to 10 | > 5 | – | Cc1nc(N2C[C@@H](CC(=O)Nc3ccc4ccccc4c3)C[C@H]2C(=O)O)c2oc3ccccc3c2n1 [Compound 31, (2S,4R)-1-(2-methylbenzofuro[3,2-d]pyrimidin-4-yl)-4-(2-(naphthalen-2-ylamino)-2-oxoethyl)pyrrolidine-2-carboxylic acid] | 1 to 2.5
155 (≈ 78.5 µg/mL) | > 5 | 1 to 2.5 | 0.2 to 0.5 | 0.05 to 0.1 | 1 to 5 | > 5 | – | Cc1nc(N2C[C@@H](CC(=O)Nc3cccc(-c4ccccc4)c3)C[C@H]2C(=O)O)c2oc3ccccc3c2n1 [Compound 36, (2S,4R)-4-(2-([1,1′-biphenyl]-3-ylamino)-2-oxoethyl)-1-(2-methylbenzofuro[3,2-d]pyrimidin-4-yl)pyrrolidine-2-carboxylic acid] | 1 to 2.5
547 (≈ 278 µg/mL) | > 5 | 1 to 2.5 | < 0.2 | < 0.05 | – | 3.33 to 5 | C (C represents <1 cm/ss×10^−6) | Cc1nc(N2C[C@@H](CC(=O)Nc3ccc(-c4cccnc4)cc3)C[C@H]2C(=O)O)c2oc3ccccc3c2n1 [Compound 37, (2S,4R)-1-(2-methylbenzofuro[3,2-d]pyrimidin-4-yl)-4-(2-oxo-2-((4-(pyridin-3-yl)phenyl)amino)ethyl)pyrrolidine-2-carboxylic acid] | 1 to 2.5
42 (≈ 23 µg/mL) | 1.67 to 3.33 | < 1 | < 0.2 | < 0.05 | – | > 5 | C (C represents <1 cm/ss×10^−6) | Cc1nc(N2C[C@@H](CC(=O)Nc3ccc(-c4cccc5[nH]ncc45)cc3)C[C@H]2C(=O)O)c2oc3ccccc3c2n1 [Compound 46, (2S,4R)-4-(2-((4-(1H-indazol-4-yl)phenyl)amino)-2-oxoethyl)-1-(2-methylbenzofuro[3,2-d]pyrimidin-4-yl)pyrrolidine-2-carboxylic acid] | 1 to 2.5
